In brackets after ≈: the same amount, converted by molar mass. Activity calls are given as the source filed them. The rule behind the calls is not given here.
How the values were obtained:
Phytophthora capsici = test: Antifungal activity against Phytophthora capsici assessed as inhibition of fungal growth measured after 72 hrs by double dilution method; format: functional, organism-based
Ralstonia solanacearum = test: Antimicrobial activity against Ralstonia solanacearum assessed as reduction in bacterial growth at 100 ug/ml measured after 48 hrs by double dilution method; format: functional, organism-based; conditions: dose 100.0 µg/ml
HeLa = test: Cytotoxicity against human HeLa cells assessed as reduction in cell viability measured after 48 hrs by CCK8 assay; format: functional, cell-based
[1] = system: Pseudomonas syringae pv. actinidiae; test: Antimicrobial activity against Pseudomonas syringae pv. actinidiae assessed as reduction in bacterial growth measured at 100 ug/ml after 48 hrs by double dilution method; format: functional; conditions: dose 100.0 µg/ml
HepG2 = test: Cytotoxicity against human HepG2 cells assessed as reduction in cell viability measured after 48 hrs by CCK8 assay; format: functional, cell-based; conditions: HepG2, 48 h
Staphylococcus aureus = test: Antimicrobial activity against Staphylococcus aureus assessed as reduction in bacterial growth at 100 ug/ml measured after 48 hrs by double dilution method; format: functional, organism-based; conditions: dose 100.0 µg/ml
Alternaria alternata = test: Antifungal activity against Alternaria alternata assessed as inhibition of fungal growth measured after 72 hrs by double dilution method; format: functional, organism-based
Pseudomonas sp. [2] = test: Antimicrobial activity against Pseudomonas sp. assessed as reduction in bacterial growth at 100 ug/ml measured after 48 hrs by double dilution method; format: functional, organism-based; conditions: dose 100.0 µg/ml
Bacillus cereus = test: Antimicrobial activity against Bacillus cereus assessed as reduction in bacterial growth at 100 ug/ml measured after 48 hrs by double dilution method; format: functional, organism-based; conditions: dose 100.0 µg/ml
Escherichia coli = test: Antimicrobial activity against Escherichia coli assessed as reduction in bacterial growth at 100 ug/ml measured after 48 hrs by double dilution method; format: functional, organism-based; conditions: dose 100.0 µg/ml
Bacillus subtilis = test: Antimicrobial activity against Bacillus subtilis assessed as reduction in bacterial growth at 100 ug/ml measured after 48 hrs by double dilution method; format: functional; conditions: for Activity: dose 100.0 µg/ml
Fusarium oxysporum = test: Antifungal activity against Fusarium oxysporum assessed as inhibition of fungal growth measured after 72 hrs by double dilution method; format: functional
Pseudomonas sp. [3] = test: Antimicrobial activity against Pseudomonas sp. assessed as reduction in bacterial growth measured after 48 hrs by double dilution method; format: functional

Compound	Activity (Phytophthora capsici)	Activity (Ralstonia solanacearum)	IC50 (HeLa) [µM]	Activity [1]	IC50 (HepG2) [µM]	Activity (Staphylococcus aureus)	Activity (Alternaria alternata)	Activity (Pseudomonas sp. [2])	Activity (Bacillus cereus)	Activity (Escherichia coli)	Activity (Bacillus subtilis)	MIC (Fusarium oxysporum) [mg/L]	MIC (Pseudomonas sp. [3]) [mg/L]	Activity (Fusarium oxysporum)	MIC (Bacillus subtilis; dose 100 µg/ml) [mg/L]
C[C@@H](O)[C@@H]1OC(=O)[C@@H]2[C@H]3c4c[nH]c5cccc(c45)C[C@H]3C(C)(C)N2C1=O	inactive	inactive	> 20	inactive	> 20	inactive	inactive	inactive	inactive	inactive	inactive	50 (≈ 141 µM)	–	–	–
CS[C@@]1(Cc2c[nH]c3ccccc23)NC(=O)[C@@](SC)([C@@H](C)O)NC1=O	–	inactive	> 20	inactive	> 20	inactive	–	inactive	inactive	inactive	inactive	–	–	–	–
C[C@@H](O)[C@]12SS[C@@]3(C(=O)N1C)[C@H](O)C1([C@]45c6ccccc6N[C@H]4N4C(=O)[C@@]6([C@@H](C)O)SS[C@@]4(C(=O)N6C)[C@@H]5O)c4ccccc4N[C@H]1N3C2=O (stereo not given in full)	–	inactive	0.12	inactive	0.37	inactive	–	inactive	inactive	inactive	inactive	–	–	–	–
C[C@@H](O)[C@@H]1NC(=O)[C@H](Cc2c[nH]c3ccccc23)NC1=O	inactive	inactive	> 20	inactive	> 20	inactive	inactive	inactive	inactive	inactive	inactive	–	50 (≈ 174 µM)	inactive	–
C[C@H](O)[C@H]1NC(=O)[C@@H](Cc2c[nH]c3ccccc23)NC1=O	inactive	–	–	–	–	–	inactive	–	–	–	–	–	–	inactive	25 (≈ 87 µM)
CS[C@@]1(Cc2c[nH]c3ccccc23)NC(=O)[C@H]([C@@H](C)O)NC1=O	–	inactive	> 20	inactive	> 20	inactive	–	inactive	inactive	inactive	inactive	–	–	–	–
CN1C(=O)C(=O)N2C(=C[C@@]3(c4c[nH]c5ccccc45)c4ccccc4N[C@@H]23)C1=O	–	inactive	> 20	inactive	> 20	inactive	–	inactive	inactive	inactive	inactive	–	–	–	–
C[C@@H](O)[C@]12SS[C@@]3(C(=O)N1C)[C@H](O)[C@@]1(c4c[nH]c5ccccc45)c4ccccc4N[C@H]1N3C2=O	–	inactive	0.42	inactive	0.6	inactive	–	inactive	inactive	inactive	inactive	–	–	–	–
O=C(O)c1ccc(O)c2c1Cc1cccn1-2	inactive	inactive	> 20	inactive	> 20	inactive	inactive	inactive	inactive	inactive	inactive	–	–	inactive	–
CS[C@@H]1C(=O)N2[C@@H]3Nc4ccccc4[C@]3(c3c[nH]c4ccccc34)[C@@H](O)[C@@]2(SC)C(=O)N1C	–	inactive	> 20	inactive	> 20	inactive	–	inactive	inactive	inactive	inactive	–	–	–	–

Reference: ChEMBL document CHEMBL5053499, “Indole Alkaloids from a Soil-Derived Clonostachys rosea” (J Nat Prod, 2021)
